molecular target: T1, RORc ligand binding domain (Homo sapiens, UniProt P51449); assay: In vitro RORc ligand binding assay (25-[3H]hydroxycholesterol displacement, filter binding)
T1 construct: host or cells: E. coli
T1 sequence (P51449 269-508 limits assumed): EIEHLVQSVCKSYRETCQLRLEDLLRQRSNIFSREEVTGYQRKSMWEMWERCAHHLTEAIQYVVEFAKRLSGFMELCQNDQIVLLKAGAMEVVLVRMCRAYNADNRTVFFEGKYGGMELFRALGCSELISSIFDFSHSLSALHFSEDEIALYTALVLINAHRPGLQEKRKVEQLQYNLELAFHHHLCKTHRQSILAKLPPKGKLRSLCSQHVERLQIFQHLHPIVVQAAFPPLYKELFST

SMILES | IC50 [nM]
CN(C)C(=O)N1CCO[C@H]([C@@]23CC[C@@H](c4cc(-c5c(F)cccc5F)nnc42)C3(C)C)C1 [Compound 86, (R)-2-((5R,8R)-3-(2,6-difluorophenyl)-9,9-dimethyl-5,6,7,8-tetrahydro-5,8-methanocinnolin-8-yl)-N,N-dimethylmorpholine-4-carboxamide] | 473
CC[C@@H](O[C@@]12CC[C@@H](c3cc(-c4c(F)cccc4F)nnc31)C2(C)C)C(=O)NCCCO [Compound 105, (R)-2-(((5S,8R)-3-(2,6-difluorophenyl)-9,9-dimethyl-5,6,7,8-tetrahydro-5,8-methanocinnolin-8-yl)oxy)-N-(3-hydroxypropyl)butanamide] | 33.9
CC1(C)[C@H]2CC[C@]1([C@@H]1CN(CC(F)F)CCO1)c1nnc(-c3c(F)cccc3F)cc12 [Compound 83, (R)-4-(2,2-difluoroethyl)-2-((5R,8R)-3-(2,6-difluorophenyl)-9,9-dimethyl-5,6,7,8-tetrahydro-5,8-methanocinnolin-8-yl)morpholine] | 356

More lines, in order of falling IC50, values ahead:

IC50 [nM] | SMILES
1010 | CCNC(=O)[C@@H](CC)O[C@@]12CC[C@@H](c3cc(-c4c(F)cccc4F)nnc31)C2(C)C [Compound 22, (R)-2-(((5S,8R)-3-(2,6-difluorophenyl)-9,9-dimethyl-5,6,7,8-tetrahydro-5,8-methanocinnolin-8-yl)oxy)-N-ethylbutanamide]
234 | CC1(C)[C@H]2CC[C@]1([C@@H]1CN(C(=O)CO)CCO1)c1nnc(-c3c(F)cccc3F)cc12 [Compound 75, 1-((R)-2-((5R,8R)-3-(2,6-difluorophenyl)-9,9-dimethyl-5,6,7,8-tetrahydro-5,8-methanocinnolin-8-yl)morpholino)-2-hydroxyethanone]
14 | CC[C@@H](O[C@@]12CC[C@@H](c3cc(-c4c(F)cccc4F)nnc31)C2(C)C)C(=O)O [Compound 111, (2R)-2-[[(1R,8S)-5-(2,6-difluorophenyl)-11,11-dimethyl-3,4-diazatricyclo[6.2.1.02,7]undeca-2,4,6-trien-1-yl]oxy]butanoic acid]

— patent US9994551B2, “Pyridazine derivatives as RORc modulators” (Genentech, Inc., priority 2015, dated 2018)
